According to publication PMC9105386, “Development and Characterization of Indole-Responsive Whole-Cell Biosensor Based on the Inducible Gene Expression System from Pseudomonas putida KT2440” (International Journal of Molecular Sciences, 2022):

Target: T1, TrpI (PpTrpI/PPP_RS00425 inducible system) (Pseudomonas putida, UniProt Q88RP5)
T1 sequence (Q88RP5 1-298): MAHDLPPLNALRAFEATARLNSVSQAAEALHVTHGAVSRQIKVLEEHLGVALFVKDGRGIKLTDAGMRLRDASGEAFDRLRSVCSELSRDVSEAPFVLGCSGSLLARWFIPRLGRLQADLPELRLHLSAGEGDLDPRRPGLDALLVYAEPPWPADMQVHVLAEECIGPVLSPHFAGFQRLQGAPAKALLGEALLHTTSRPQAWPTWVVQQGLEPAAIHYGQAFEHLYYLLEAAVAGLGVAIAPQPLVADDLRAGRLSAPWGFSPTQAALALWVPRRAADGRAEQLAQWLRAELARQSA
Assay: RFP reporter induction in whole cells, Hill fit
Type: cell-based
Conditions: read-out: Km
Excerpt: RFP reporter induction in whole cells, Hill fit on TrpI (PpTrpI/PPP_RS00425 inducible system)

## c1ccc2[nH]ccc2c1 [compound 1, indole]
  EC50: 1.35 mM
